System: LOX
Test: Time-dependent inhibition with pre-incubation 0-240 min (Fig. 2d)
Format: biochemical
Text: Data are presented as mean ± s.d. […] Data presented as mean ± s.d. […] Source data TEXT PRINTED IN THE PICTURE: (b) PXS-5505: Recombinant DAO IC50 (nM): >30,000; Recombinant SSAO/VAP1 IC50 (nM): >30,000; Recombinant MAO-A IC50 (nM): >30,000; Recombinant MAO-B IC50 (nM): >30,000 | (f) PXS-5505: Fibroblast LOX IC50 (nM): 4,930; Recombinant LOXL-1 IC50 (nM): 1,590; Recombinant LOXL-2 IC50 (nM): 570; Recombinant LOXL-3 IC50 (nM): 1,800; Recombinant LOXL-4 IC50 (nM): 190
Similar to other fluoroallylamine-based amine oxidase inhibitors, the mode of inhibition is assumed to be a two-step mechanism (Fig. 2c), with PXS-5505 reacting with the unique LTQ cofactor found within the active site. The fluoroallylamine facilitates the formation of a covalent, irreversible bond. […] Furthermore, in jump dilution experiments, there is no significant recovery of activity following rapid dilution (LOXL1 (5 ± 5% recovery, n = 4), LOXL2 (7 ± 1.2% recovery, n = 3) and LOXL3 (11 ± 2% recovery, n = 3)).

SMILES: Cl.Cl.NC/C=C(\F)CS(=O)(=O)c1cccc2cccnc12.O [PXS-5505, (Z)-3-fluoro-4-(quinolin-8-ylsulfonyl)but-2-en-1-amine dihydrochloride monohydrate]
- LOX specific activity (pre-incubation 0 min, log conc -4.52288): 32.1036
- LOX specific activity (pre-incubation 0 min, log conc -5): 64.3382
- LOX specific activity (pre-incubation 0 min, log conc -5.47756): 84.6897
- LOX specific activity (pre-incubation 0 min, log conc -5.95468): 91.8109
- LOX specific activity (pre-incubation 0 min, log conc -6.4318): 92.4662
- LOX specific activity (pre-incubation 0 min, log conc -6.91009): 98.7719
- LOX specific activity (pre-incubation 0 min, log conc -7.3851): 96.7913
- LOX specific activity (pre-incubation 0 min, log conc -7.86328): 102.005
- LOX specific activity (pre-incubation 0 min, log conc -8.34008): 102.107
- LOX specific activity (pre-incubation 0 min, log conc -8.81816): 98.6554
- LOX specific activity (pre-incubation 0 min, log conc -9.29414): 106.228
- LOX specific activity (pre-incubation 0 min, log conc -9.77126): 108.063
- LOX specific activity (pre-incubation 15 min, log conc -4.52288): 9.177
- LOX specific activity (pre-incubation 15 min, log conc -5): 32.3488
- LOX specific activity (pre-incubation 15 min, log conc -5.47756): 65.4986
- LOX specific activity (pre-incubation 15 min, log conc -5.95468): 81.8309
- LOX specific activity (pre-incubation 15 min, log conc -6.4318): 89.7677
- LOX specific activity (pre-incubation 15 min, log conc -6.91009): 93.4569
- LOX specific activity (pre-incubation 15 min, log conc -7.3851): 96.3684
- LOX specific activity (pre-incubation 15 min, log conc -7.86328): 90.7581
- LOX specific activity (pre-incubation 15 min, log conc -8.34008): 96.0493
- LOX specific activity (pre-incubation 15 min, log conc -8.81816): 95.7037
- LOX specific activity (pre-incubation 15 min, log conc -9.29414): 99.1403
- LOX specific activity (pre-incubation 15 min, log conc -9.77126): 98.9675
- LOX specific activity (pre-incubation 30 min, log conc -4.52288): 2.6085
- LOX specific activity (pre-incubation 30 min, log conc -5): 10.9871
- LOX specific activity (pre-incubation 30 min, log conc -5.47756): 44.0429
- LOX specific activity (pre-incubation 30 min, log conc -5.95468): 69.7571
- LOX specific activity (pre-incubation 30 min, log conc -6.4318): 82.4602
- LOX specific activity (pre-incubation 30 min, log conc -6.91009): 92.2531
- LOX specific activity (pre-incubation 30 min, log conc -7.3851): 91.8445
- LOX specific activity (pre-incubation 30 min, log conc -7.86328): 100.827
- LOX specific activity (pre-incubation 30 min, log conc -8.34008): 94.7736
- LOX specific activity (pre-incubation 30 min, log conc -8.81816): 95.6095
- LOX specific activity (pre-incubation 30 min, log conc -9.29414): 101.078
- LOX specific activity (pre-incubation 30 min, log conc -9.77126): 104.925
- LOX specific activity (pre-incubation 60 min, log conc -4.52288): -1.9
- LOX specific activity (pre-incubation 60 min, log conc -5): 1.453
- LOX specific activity (pre-incubation 60 min, log conc -5.47756): 20.7125
- LOX specific activity (pre-incubation 60 min, log conc -5.95468): 53.0465
- LOX specific activity (pre-incubation 60 min, log conc -6.4318): 78.5482
- LOX specific activity (pre-incubation 60 min, log conc -6.91009): 90.7227
- LOX specific activity (pre-incubation 60 min, log conc -7.3851): 95.8188
- LOX specific activity (pre-incubation 60 min, log conc -7.86328): 101.294
- LOX specific activity (pre-incubation 60 min, log conc -8.34008): 102.525
- LOX specific activity (pre-incubation 60 min, log conc -8.81816): 100.564
- LOX specific activity (pre-incubation 60 min, log conc -9.29414): 101.737
- LOX specific activity (pre-incubation 60 min, log conc -9.77126): 102.743
- LOX specific activity (pre-incubation 120 min, log conc -4.52288): 2.378
- LOX specific activity (pre-incubation 120 min, log conc -5): 0.7896
- LOX specific activity (pre-incubation 120 min, log conc -5.47756): 6.366
- LOX specific activity (pre-incubation 120 min, log conc -5.95468): 21.6941
- LOX specific activity (pre-incubation 120 min, log conc -6.4318): 62.059
- LOX specific activity (pre-incubation 120 min, log conc -6.91009): 92.1986
- LOX specific activity (pre-incubation 120 min, log conc -7.3851): 91.1259
- LOX specific activity (pre-incubation 120 min, log conc -7.86328): 98.8619
- LOX specific activity (pre-incubation 120 min, log conc -8.34008): 100.244
- LOX specific activity (pre-incubation 120 min, log conc -8.81816): 100.045
- LOX specific activity (pre-incubation 120 min, log conc -9.29414): 96.9572
- LOX specific activity (pre-incubation 120 min, log conc -9.77126): 100.753
- LOX specific activity (pre-incubation 240 min, log conc -4.52288): -3.18
- LOX specific activity (pre-incubation 240 min, log conc -5): 0.3645
- LOX specific activity (pre-incubation 240 min, log conc -5.47756): 8.283
- LOX specific activity (pre-incubation 240 min, log conc -5.95468): 6.894
- LOX specific activity (pre-incubation 240 min, log conc -6.4318): 35.306
- LOX specific activity (pre-incubation 240 min, log conc -6.91009): 69.9646
- LOX specific activity (pre-incubation 240 min, log conc -7.3851): 87.2279
- LOX specific activity (pre-incubation 240 min, log conc -7.86328): 94.5493
- LOX specific activity (pre-incubation 240 min, log conc -8.34008): 99.3255
- LOX specific activity (pre-incubation 240 min, log conc -8.81816): 102.317
- LOX specific activity (pre-incubation 240 min, log conc -9.29414): 102.769
- LOX specific activity (pre-incubation 240 min, log conc -9.77126): 103.159
- time-dependent inhibition of LOX specific activity (pre-incubation time 0–240 min): increased potency with increased pre-incubation time
